From paper PMC6331730 (The EMBO Journal, 2018)

Test system: Purified tubulin with GST-tagged CPAP PN2-3 (pull-down)
Experiment: GST-PN2-3 pull-down, semi-quantitative Western blot
Assay type: binding
Conditions: protein-protein interaction inhibition

COc1ncc2cc3ccccc3nc2c1C#N [CCB02, 3‐Methoxybenzo[b][1,6]naphthyridine‐4‐carbonitrile]
IC50: ~441 nM
